Literature values as cited in patent US12636242B2, “Increased solubilization of diethylamino hydroxybenzoyl hexyl benzoate” (DSM IP ASSETS B.V., priority 2020, dated 2026).
Like-named read-outs stand apart in the source and are kept apart here.

[1] = listed as Diethylamino hydroxybenzoyl hexyl benzoate

- Solubility in esters and alcohols (ethyl hexyl-benzoate, ethanol): very soluble
- Solubility in esters and alcohols (ethyl hexyl-benzoate, ethanol) [1]: moderate solubility
- Solubility in water and alkanes: insoluble
- Solubility in water and alkanes [1]: very low
SMILES: CCCCCCOC(=O)c1ccccc1C(=O)c1ccc(N(CC)CC)cc1O [UV-filter of the formula (I), diethylamino hydroxybenzoyl hexyl benzoate]
